Source: US11098095B1, “Methods of inhibiting MMP-9” (DASMAN DIABETES INSTITUTE, priority 2020, dated 2021)

Key:
Format in all cases: cell-based
[1] = system: MMP-9 protein secretion by monocytes (THP-1 cells) and macrophages; assay: MMP-9 secreted protein in culture supernatants by sandwich ELISA; settings: for cross-talk effect of IL-6 and TNF-α stimulation on the secretion of MMP-9 by monocytes: then IL-6/TNF-α for 24 hr; for crosstalk effect of IL-6 on TNF-α's enhancement of MMP-9 expression and secretion: summary statement, concentration not given; for MMP-9 protein secretion levels: monocytes and macrophages, stimulated 24 hr, FIGS. 2A-2B
Description: Monocytes (THP-1 cells and macrophages were cultured in 12-well plates (Costar, Corning Incorporated, Corning, N.Y., USA) at a cell density of 1/10^6 cells/well. Cells were pre-incubated with gp130 inhibitor (SC-144, 1.5 μM) or JAK2 inhibitor (AG-490, 30 μM) for 1 hour and then stimulated with IL-6 or TNF-α or IL-6/TNF-α for 24 hr at 37° C. (with humidity) in 5% CO2. Control cells were incubated with culture media only. Culture media and cells were harvested and MMP9 mRNA and protein expression levels were assessed by real-time PCR (RT-PCR) and ELISA. MMP-9 secreted protein in the supernatants of monocytes and macrophages stimulated with IL-6, TNF-α, or IL-6 and TNF-α was quantified using sandwich ELISA following the manufacturers instructions (SMP900, R&D systems, Minneapolis, USA). As illustrated in FIGS. 2A-2B. […] As illustrated in FIGS. 3A-3B, this robust cross-talk effect of IL-6 and TNF-α stimulation on the secretion of MMP-9 by monocytes may be extinguished by administration of either a JAK2 inhibitor AG-490, See FIG. 3A) or a gp130 inhibitor (SC-144, See FIG. 3B).

[2] = system: MMP-9 mRNA expression in monocytes (THP-1 cells) and macrophages; assay: MMP-9 mRNA expression by real-time PCR (RT-PCR); settings: stimulated 24 hr, FIGS. 1A and 1B
Description: Monocytes (THP-1 cells and macrophages were cultured in 12-well plates (Costar, Corning Incorporated, Corning, N.Y., USA) at a cell density of 1/10^6 cells/well. Cells were pre-incubated with gp130 inhibitor (SC-144, 1.5 μM) or JAK2 inhibitor (AG-490, 30 μM) for 1 hour and then stimulated with IL-6 or TNF-α or IL-6/TNF-α for 24 hr at 37° C. (with humidity) in 5% CO2. Control cells were incubated with culture media only. Culture media and cells were harvested and MMP9 mRNA and protein expression levels were assessed by real-time PCR (RT-PCR) and ELISA.
Total RNA was extracted using RNeasy Mini Kit (Qiagen, Valencia, Calif.; USA). […] For RT-PCR, cDNA template (50 ng) was amplified using inventoried TaqMan Gene Expression Assay products (MMP-9; Hs00234579_m1; GAPDH; Bs0392909_g1; containing two gene-specific printers and one TaqMan MGB probe (6-FAM dye-labeled) with a TaqMan Gene Expression Master Mix (Applied Biosystems, Foster City, Calif., USA) and a 7500 Fast Real-Time PCR System (Applied Biosystems, Foster City, Calif., USA). The mRNA levels were normalized against GAPDH mRNA and MMP-9 mRNA expression relative to control was calculated using the 2^−ΔΔCt-method. Relative mRNA expression is shown as told expression over average of control gene expression. […] The results were analyzed statistically and P<0.05 was considered significant.

[3] = system: MMP-9 proteolytic activity in conditioned media of THP-1 cells; assay: MMP9 proteolytic activity measured using gelatin zymography; settings: monocytes (THP-1), 24 hours incubation
Description: THP-1 cells were incubated with TNF-α and IL-6. After incubation for 24 hours, conditioned media were collected and mixed with Zymogram sample buffer (BioRad; 62.5 mM Tris-HCl, pH.6.8, 25% glycerol, 4% SDS and 0.01% bromophenol blue) and then loaded on to a 10% polyacrylamide gel with gelatin (10% Ready Gel Zymogram Gel, BioRad) for electrophoresis. The gel was incubated with renaturing buffer BioRad (2.5% Triton X-100) for 1 hour at room temperature and Incubated with zonogram developing buffer.

N#C/C(=C\c1ccc(O)c(O)c1)C(=O)NCc1ccccc1 [AG490]
cross-talk effect of IL-6 and TNF-α stimulation on the secretion of MMP-9 by monocytes ([1]; AG-490 30 μM pre-incubated 1 hour, FIG. 3A): extinguished
crosstalk effect of IL-6 on TNF-α's enhancement of MMP-9 expression and secretion [1]: suppress

O=C(NNc1nc2cc(F)ccc2n2cccc12)c1cnccn1 [SC-144]
cross-talk effect of IL-6 and TNF-α stimulation on the secretion of MMP-9 by monocytes ([1]; SC-144 1.5 μM pre-incubated 1 hour, FIG. 3B): extinguished
crosstalk effect of IL-6 on TNF-α's enhancement of MMP-9 expression and secretion [1]: suppress

tumor necrosis factor alpha [TNF-α]
MMP-9 protein secretion levels [1]: increased
MMP-9 mRNA expression relative to control [2]: increase
MMP-9 proteolytic activity [3]: lesser

interleukin-6 [IL-6]
MMP-9 protein secretion levels [1]: minimally effected
MMP-9 proteolytic activity [3]: minimal
